Assay results reported in patent US9889130B2, “Substituted 3-benzofuranyl-indol-2-one-3-acetamididopiperazine derivatives, preparation thereof, and therapeutic use thereof” (SANOFI, priority 2009, dated 2018).

What was measured:
ghrelin receptor = target: T1, ghrelin receptor (Rattus norvegicus, UniProt O08725); assay: Ghrelin antagonism in electrically stimulated rat gastric fundus strips (called In Vivo Test); details: isolated rat gastric fundus strips, electric-field stimulation, ghrelin 0.1 nM-1 μM concentration-response curves, antagonist contact time 30 minutes; read-out: IC50, antagonist activity towards the ghrelin receptor
T1 construct: Strips of approximately 1 cm (5 mm wide) of gastric fundus were cut out along the longitudinal axis; from tissue; host or cells: rat gastric fundus strips
Description: Male Crl CD BR rats (Charles River, Italy) weighing 150-175 g were housed in a chamber at regulated temperature (22±1° C.) and humidity (55±10%) and with a 12-hour lightness-darkness cycle, for at least 7 days before their use. Feed and water were available ad libitum. The feed was removed 18 hours before sacrificing the animals. The rats were sacrificed by cervical dislocation, and the stomach was removed surgically, opened along the shorter curvature and placed in a Krebs solution (of composition (mM): 118.4 NaCl; 4.7 KCl; 2.5 CaCl2; 3.7 NaH2PO4; 1.2 MgSO4; 25 NaHCO3; 5.6 glucose). The animals were cared for and sacrificed according to the Sanofi-Aventis international code of ethics and the international principles governing the care and treatment of laboratory animals (EEC Directive 86/609, DJL358, 1, 12 Dec. 1987). […] The contractions were recorded by computer with a data recording and analysis system (Power Lab, Chart 5) connected to isotonic transducers (Ugo Basile, Varese, Italy) via preamplifiers (Octal Bridge Amp). […] The pKb values for the antagonists were calculated according to the Cheng-Prusoff equation (Kenakin et al., Competitive Antagonism, Pharmacologic Analysis of Drug-Receptor Interaction, 3rd edition, 331-373, Philadelphia, New York; Raven: Lippincott, 1997).

T1 sequence (O08725 whole entry): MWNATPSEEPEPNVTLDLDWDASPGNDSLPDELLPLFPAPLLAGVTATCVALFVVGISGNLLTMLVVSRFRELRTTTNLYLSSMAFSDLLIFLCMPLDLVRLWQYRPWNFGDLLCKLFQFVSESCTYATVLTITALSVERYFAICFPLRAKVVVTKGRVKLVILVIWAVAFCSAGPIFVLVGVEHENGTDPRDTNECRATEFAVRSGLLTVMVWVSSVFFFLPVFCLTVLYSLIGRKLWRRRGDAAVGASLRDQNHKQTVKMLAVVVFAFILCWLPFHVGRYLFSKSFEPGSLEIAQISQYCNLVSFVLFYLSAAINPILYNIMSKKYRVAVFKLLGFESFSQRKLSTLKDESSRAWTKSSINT

melting point [°C] | IC50 (ghrelin receptor) [µM] | SMILES
157 to 160 |  | CCN1C(C)CN(CC(=O)NC2(c3ccc4occc4c3)C(=O)Nc3cc(Cl)cc(Cl)c32)CC1C (single isomer, unassigned; (+)) [Example 1, (+)-N-[4,6-Dichloro-3-(benzofuran-5-yl)-2-oxo-2,3-dihydro-1H-indol-3-yl]-2-(4-ethyl-3,5-dimethylpiperazin-1-yl)acetamide]
137 to 138 | 0.012 | CCN1CCN(C(C)C(=O)NC2(c3ccc4occc4c3)C(=O)Nc3cc(Cl)cc(Cl)c32)CC1 (single isomer, unassigned; (+)) [Example 2, (+)-N-[4,6-Dichloro-3-(benzofuran-5-yl)-2-oxo-2,3-dihydro-1H-indol-3-yl]-2-(4-ethylpiperazin-1-yl)propionamide]
